Data taken from patent US5681833A, “Benzodiazepine derivatives” (Merck, Sharp & Dohme Ltd., priority 1992, dated 1997).

Columns and labels:
CCK receptor (pancreas) = biological target: T1, CCK receptor (pancreas) (Rattus norvegicus, UniProt P30551); assay: CCK Receptor Binding (Pancreas), inhibition of specific 125I-CCK-8 binding; parameters: species or system rat (male Sprague-Dawley)
T1 construct: The whole pancreas was dissected free of fat tissue and was homogenized; from tissue; host or cells: whole pancreas of male Sprague-Dawley rats, homogenate membranes
T1 sequence (P30551 1-444): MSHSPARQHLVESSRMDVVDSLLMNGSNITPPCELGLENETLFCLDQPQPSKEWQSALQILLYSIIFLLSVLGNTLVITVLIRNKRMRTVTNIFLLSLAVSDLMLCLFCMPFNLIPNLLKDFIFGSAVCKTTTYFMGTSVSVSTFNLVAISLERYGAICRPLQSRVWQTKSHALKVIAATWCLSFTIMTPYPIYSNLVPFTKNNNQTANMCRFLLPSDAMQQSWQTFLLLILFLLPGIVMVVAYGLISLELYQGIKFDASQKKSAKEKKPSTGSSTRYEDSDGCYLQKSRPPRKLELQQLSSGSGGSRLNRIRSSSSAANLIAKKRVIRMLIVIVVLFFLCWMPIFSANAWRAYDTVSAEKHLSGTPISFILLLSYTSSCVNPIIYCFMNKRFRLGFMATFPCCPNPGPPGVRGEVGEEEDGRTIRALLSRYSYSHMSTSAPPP
Method: 1. CCK Receptor Binding (Pancreas)
CCK-8 sulphated was radiolabelled with ^125 I-Bolton Hunter reagent (2000 Ci/mmole). Receptor binding was performed according to Chang and Lotti (Proc. Natl. Acad. Sci. 83, 4923-4926, 1986) with minor modifications.
Male Sprague-Dawley rats (150-200 g) were sacrificed by decapitation. The whole pancreas was dissected free of fat tissue and was homogenized in 25 volumes of ice-cold 10 mM N-2-hydroxyethyl-piperazine-N'-2-ethane sulphonic acid (HEPES) buffer with 0.1% soya bean trypsin inhibitor (pH 7.4 at 25° C.) with a Kinematica Polytron. The homogenates were centrifuged at 47,800 g for 10 min. Pellets were resuspended in 10 volumes of binding assay buffer (20 mM (HEPES)), 1 mM ethylene glycol-bis-(β-aminoethylether-N,N'-tetraacetic acid) (EGTA), 5 mM MgCl2, 150 mM NaCl, bacitracin 0.25 mg/ml, soya bean trypsin inhibitor 0.1 mg/ml, and bovine serum albumin 2 mg/ml pH 6.5 at 25° C.) using a Teflon (trademark) homogenizer, 15 strokes at 500 rpm. The homogenate was further diluted in binding assay buffer to give a final concentration of 0.5 mg original wet weight/1 ml buffer. […] All assays were run in duplicate. The reaction mixtures were incubated at 25° C. for 2 hours and the reaction terminated by rapid filtration (Brandell 24 well cell harvester) over Whatman GF/C filters, washing 3×4 mls with ice-cold 100 Mm NaCl. The radioactivity on the filters was counted with a LKB gamma counter.

CCK receptor (brain) = biological target: T2, CCK receptor (brain) (Cavia porcellus, UniProt H0VZC5); assay: CCK Receptor Binding (Brain), inhibition of specific 125I-CCK-8 binding; parameters: species or system guinea pig (male Hartley)
T2 construct: the cortex was removed and homogenized in 25 mL ice-cold 0.32M sucrose; from tissue; host or cells: cortex of male Hartley guinea pigs, P2 membranes
T2 sequence (H0VZC5 1-426): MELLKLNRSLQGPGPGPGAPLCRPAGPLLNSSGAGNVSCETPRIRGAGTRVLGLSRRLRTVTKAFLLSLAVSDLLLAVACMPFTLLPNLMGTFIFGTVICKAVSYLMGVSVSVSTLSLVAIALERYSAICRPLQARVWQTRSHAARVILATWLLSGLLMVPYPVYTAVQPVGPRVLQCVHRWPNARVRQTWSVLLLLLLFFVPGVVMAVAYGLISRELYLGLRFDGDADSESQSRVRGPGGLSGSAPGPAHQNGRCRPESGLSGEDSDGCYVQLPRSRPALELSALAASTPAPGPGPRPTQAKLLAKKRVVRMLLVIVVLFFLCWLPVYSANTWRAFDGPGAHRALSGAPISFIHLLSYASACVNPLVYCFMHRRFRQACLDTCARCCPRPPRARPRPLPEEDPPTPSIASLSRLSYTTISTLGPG
Method: 2. CCK Receptor Binding (Brain)
CCK-8 sulphated was radiolabelled and the binding was performed according to the description for the pancreas method with minor modifications.
Male Hartley guinea pigs (300-500 g) were sacrificed by decapitation and the cortex was removed and homogenized in 25 mL ice-cold 0.32M sucrose. The homogenates were centrifuged at 1000 g for 10 minutes and the resulting supernatant was recentrifuged at 20,000 g for 20 minutes. The P2 pellet was resuspended in binding assay buffer (20mM HEPES, 5 mM MgCl2, 0.25 mg/ml bacitracin, 1 mM EGTA pH 6.5 at 25° C.), using a Teflon (trademark) homogenizer (5 strokes at 500 rpm) to give a final concentration of 10 mg original wet weight/1.2 ml buffer. […] All assays were run in duplicate. The reaction mixtures were incubated at 25° C. for 2 hours and then the reaction was terminated by rapid filtration (Brandell 24 well cell harvester) on Whatman GF/C filters with 3×5 ml washes of cold 100 mM NaCl. The radioactivity on the filters was counted with a LKB gamma counter.

For `Cc1ccc(NC(=O)N[C@@H]2N=C(c3ccccc3)c3ccccc3N(C)C2=O)cc1Nc1nn[nH]n1` [Example 12, (+)-N-[3(R)-2,3-Dihydro-1-methyl-2-oxo-5-phenyl-1H-1,4-benzodiazepin-3-yl]-N'-[4-methyl-3-{(tetrazol-5-yl)amino}phenyl]urea], the IC50 (CCK receptor (pancreas)) was > 3000 nM and the IC50 (CCK receptor (brain)) was 1.09 nM.
